Results from PubChem BioAssay AID248 (DTP/NCI, 2004).
Inconclusive results and toxic doses are left out. Rule as the data show it: active = T/C of 150% or more; inactive = T/C below 125%.

System: L1210 leukemia ip in BDF1 mice, survival T/C
Assay: NCI In Vivo Anticancer Drug Screen. Data for tumor model L1210 Leukemia (intraperitoneal) in B6D2F1 (BDF1) mice
Settings: endpoint: mean survival time, higher = longer survival
Procedure, shortened: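 Tumor was transplanted into mice, which were then dosed with test compound or vehicle alone. Survival was recorded for each group, and the treated figure was expressed relative to the control figure.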

[1] = dose: 100.0 mg/kg/injection, schedule: Q01DX009 (ip), vehicle: Klucel (hydroxypropylcellulose) (HPC)
[2] = dose: 200.0 mg/kg/injection, schedule: Q01DX009 (ip), vehicle: Klucel (hydroxypropylcellulose) (HPC)
[3] = dose: 50.0 mg/kg/injection, schedule: Q01DX009 (ip), vehicle: saline with Tween-80
[4] = dose: 100.0 mg/kg/injection, schedule: Q04DX003 (ip), vehicle: Klucel (hydroxypropylcellulose) (HPC)
[5] = dose: 100.0 mg/kg/injection, schedule: Q04DX003 (ip), vehicle: saline with Tween-80
[6] = dose: 200.0 mg/kg/injection, schedule: Q04DX003 (ip), vehicle: saline with Tween-80
[7] = dose: 12.5 mg/kg/injection, schedule: Q01DX009 (ip), vehicle: saline
[8] = dose: 25.0 mg/kg/injection, schedule: Q01DX009 (ip), vehicle: saline
[9] = dose: 25.0 mg/kg/injection, schedule: Q04DX003 (ip), vehicle: saline
[10] = dose: 50.0 mg/kg/injection, schedule: Q01DX009 (ip), vehicle: saline
[11] = dose: 50.0 mg/kg/injection, schedule: Q04DX003 (ip), vehicle: saline
[12] = dose: 100.0 mg/kg/injection, schedule: Q01DX009 (ip), vehicle: saline
[13] = dose: 200.0 mg/kg/injection, schedule: Q01DX009 (ip), vehicle: saline

Measured: T/C

O=C(NCCN1CCCC1)NC1CCCCC1
inactive: [1] 101 % of control | [2] 98 % of control

COC(=O)N/N=C/c1ccc(NC(C)=O)cc1
inactive: [1] 95 % of control | [2] 101 % of control | dose: 400.0 mg/kg/injection, schedule: Q01DX009 (ip), vehicle: Klucel (hydroxypropylcellulose) (HPC) 97 % of control

C=CC(C)(O)C(C)(C)C (stereo not drawn)
inactive: [3] 100 % of control | dose: 100.0 mg/kg/injection, schedule: Q01DX009 (ip), vehicle: saline with Tween-80 96 % of control | dose: 200.0 mg/kg/injection, schedule: Q01DX009 (ip), vehicle: saline with Tween-80 100 % of control

COc1ccc(COC(=O)N=[N+]=[N-])cc1
inactive: dose: 12.5 mg/kg/injection, schedule: Q04DX003 (ip), vehicle: Klucel (hydroxypropylcellulose) (HPC) 112 % of control | dose: 25.0 mg/kg/injection, schedule: Q01DX009 (ip), vehicle: Klucel (hydroxypropylcellulose) (HPC) 98 % of control | dose: 25.0 mg/kg/injection, schedule: Q04DX003 (ip), vehicle: Klucel (hydroxypropylcellulose) (HPC) 110 % of control | dose: 50.0 mg/kg/injection, schedule: Q01DX009 (ip), vehicle: Klucel (hydroxypropylcellulose) (HPC) 91 % of control | dose: 50.0 mg/kg/injection, schedule: Q04DX003 (ip), vehicle: Klucel (hydroxypropylcellulose) (HPC) 105 % of control | dose: 100.0 mg/kg/injection, schedule: Q01DX001 (ip), vehicle: Klucel (hydroxypropylcellulose) (HPC) 98 % of control | [4] 105 % of control

Cc1c(Cl)c(C)c(Cl)c(O)c1Cl (tested in a mixture with another compound)
inactive: dose: 25.0 mg/kg/injection, schedule: Q01DX009 (ip), vehicle: saline with Tween-80 97 % of control | [3] 93 % of control | dose: 100.0 mg/kg/injection, schedule: Q04DX002 (ip), vehicle: other 95 % of control | dose: 200.0 mg/kg/injection, schedule: Q04DX002 (ip), vehicle: other 90 % of control

CCCCCCCCCC(=O)OCC1OC(=O)C(C)N(C)C(=O)CN(C)C(=O)C2C(=O)CC(C)N2C(=O)C(C(C)C)NC(=O)C1NC(=O)c1c2nc3c(C(=O)NC4C(=O)NC(C(C)C)C(=O)N5C(C)CC(OC(=O)CCCCCCCCC)C5C(=O)N(C)CC(=O)N(C)C(C(C)C)C(=O)OC4C)ccc(C)c3oc-2c(C)c(=O)c1N (stereo not drawn)
inactive: dose: 0.2 mg/kg/injection, schedule: Q01DX009 (ip), vehicle: Klucel (hydroxypropylcellulose) (HPC) 92 % of control | dose: 0.4 mg/kg/injection, schedule: Q01DX009 (ip), vehicle: Klucel (hydroxypropylcellulose) (HPC) 94 % of control | dose: 0.6 mg/kg/injection, schedule: Q04DX003 (ip), vehicle: Klucel (hydroxypropylcellulose) (HPC) 97 % of control | dose: 0.8 mg/kg/injection, schedule: Q01DX009 (ip), vehicle: Klucel (hydroxypropylcellulose) (HPC) 96 % of control | dose: 1.2 mg/kg/injection, schedule: Q04DX003 (ip), vehicle: Klucel (hydroxypropylcellulose) (HPC) 95 % of control | dose: 1.6 mg/kg/injection, schedule: Q01DX001 (ip), vehicle: Klucel (hydroxypropylcellulose) (HPC) 92 % of control | dose: 1.6 mg/kg/injection, schedule: Q01DX009 (ip), vehicle: Klucel (hydroxypropylcellulose) (HPC) 92 % of control | dose: 2.4 mg/kg/injection, schedule: Q04DX003 (ip), vehicle: Klucel (hydroxypropylcellulose) (HPC) 90 % of control | dose: 3.2 mg/kg/injection, schedule: Q01DX001 (ip), vehicle: Klucel (hydroxypropylcellulose) (HPC) 92 % of control | dose: 3.2 mg/kg/injection, schedule: Q01DX009 (ip), vehicle: Klucel (hydroxypropylcellulose) (HPC) 89 % of control | dose: 4.8 mg/kg/injection, schedule: Q04DX003 (ip), vehicle: Klucel (hydroxypropylcellulose) (HPC) 91 % of control | dose: 6.4 mg/kg/injection, schedule: Q01DX001 (ip), vehicle: Klucel (hydroxypropylcellulose) (HPC) 91 % of control | dose: 9.6 mg/kg/injection, schedule: Q04DX003 (ip), vehicle: Klucel (hydroxypropylcellulose) (HPC) 87 % of control | dose: 12.8 mg/kg/injection, schedule: Q01DX001 (ip), vehicle: Klucel (hydroxypropylcellulose) (HPC) 89 % of control

C=C1C2CCC3C4(C)CC(OC5OC(CO)C(OS(=O)(=O)O)C(OS(=O)(=O)O)C5OC(=O)CCCC)CC(C(=O)O)C4CCC3(C2)C1O (stereo not drawn)
inactive: dose: 3.12 mg/kg/injection, schedule: Q01DX009 (ip), vehicle: saline 104 % of control | dose: 6.25 mg/kg/injection, schedule: Q01DX009 (ip), vehicle: saline 92 % of control | [5] 98 % of control | [6] 106 % of control

Nc1ccc2c(c1)C(=NO)c1cc(N)ccc1-2
inactive: dose: 100.0 mg/kg/injection, schedule: Q01DX001 (ip), vehicle: carboxymethylcellulose (CMC) 106 % of control | dose: 200.0 mg/kg/injection, schedule: Q01DX001 (ip), vehicle: carboxymethylcellulose (CMC) 108 % of control

O=C(Nc1ccccn1)Nc1ccccn1
inactive: [1] 104 % of control | [4] 98 % of control | [2] 104 % of control | dose: 200.0 mg/kg/injection, schedule: Q04DX003 (ip), vehicle: Klucel (hydroxypropylcellulose) (HPC) 87 % of control | dose: 400.0 mg/kg/injection, schedule: Q04DX003 (ip), vehicle: Klucel (hydroxypropylcellulose) (HPC) 106 % of control

CN(C)CCCN1c2ccccc2S(=O)c2ccc(Cl)cc21 (stereo not drawn)
inactive: [7] 96 % of control | [8] 102 % of control | [9] 109 % of control | [10] 111 % of control | [11] 106 % of control | [12] 96 % of control | dose: 100.0 mg/kg/injection, schedule: Q04DX003 (ip), vehicle: saline 95 % of control | [13] 107 % of control | dose: 200.0 mg/kg/injection, schedule: Q04DX003 (ip), vehicle: saline 103 % of control

O=C1c2cscc2C(O)(c2ccccc2)c2c(Cl)sc(Cl)c21 (stereo not drawn)
inactive: dose: 100.0 mg/kg/injection, schedule: Q01DX001 (ip), vehicle: saline with Tween-80 88 % of control | dose: 200.0 mg/kg/injection, schedule: Q01DX001 (ip), vehicle: saline with Tween-80 88 % of control | dose: 400.0 mg/kg/injection, schedule: Q01DX001 (ip), vehicle: saline with Tween-80 88 % of control

CCc1nc2c(c(=O)[nH]1)C(c1ccc(Cl)cc1)C(C)(C)O2 (stereo not drawn)
inactive: dose: 200.0 mg/kg/injection, schedule: Q04DX003 (ip), vehicle: acetone 94 % of control | dose: 400.0 mg/kg/injection, schedule: Q04DX003 (ip), vehicle: acetone 105 % of control

CCOC(=O)c1c(-c2ccccc2)csc1NC(=O)c1ccccc1
inactive: dose: 50.0 mg/kg/injection, schedule: Q04DX003 (ip), vehicle: saline with Tween-80 92 % of control | [5] 90 % of control | [6] 89 % of control | dose: 400.0 mg/kg/injection, schedule: Q04DX003 (ip), vehicle: saline with Tween-80 90 % of control

c1cc[c]([Sn]([CH2]Cc2ccncc2)([c]2ccccc2)[c]2ccccc2)cc1
inactive: dose: 100.0 mg/kg/injection, schedule: Q04DX002 (sc), vehicle: olive oil, sesame oil, peanut oil 110 % of control | dose: 200.0 mg/kg/injection, schedule: Q04DX002 (sc), vehicle: olive oil, sesame oil, peanut oil 100 % of control | dose: 400.0 mg/kg/injection, schedule: Q04DX002 (sc), vehicle: olive oil, sesame oil, peanut oil 103 % of control

CCN(CC)CCCOC(=O)C(CCC(C)C)c1ccccc1C (stereo not drawn)
inactive: [7] 93 % of control | dose: 12.5 mg/kg/injection, schedule: Q04DX003 (ip), vehicle: saline 102 % of control | [8] 102 % of control | [9] 100 % of control | [10] 93 % of control | [11] 94 % of control

CCCCN(C(=O)OCC)P(=O)(OCC)OCC
inactive: [12] 95 % of control | [13] 109 % of control
